Experimental data published in PMC9826262, “Discovery of Benzo[d]imidazole‐6‐sulfonamides as Bromodomain and Extra‐Terminal Domain (BET) Inhibitors with Selectivity for the First Bromodomain” (Chemmedchem, 2022).
In brackets after ≈: the same amount, converted by molar mass.

Legend:
[1] = Nephelometric solubility determination; format: physicochemical; conditions: for solubility: aqueous buffer, kinetic from dmso stock, PBS with 1 % DMSO, tested at 50 and 100 μM, room temperature, read-out: Solubility (highest concentration where no precipitate was detected)
Description: Solubility determination. Solubility of the compounds was determined using Nepheloskan Ascent® (Labsystems). The experiments were performed at room temperature in 96‐well plates in a final volume of 300 μL. Each compound was tested in quadruplicate at the concentrations of 50 and 100 μM in PBS with 1 % DMSO. The measurements were performed at 4 different time points (T0, 30 min, 60 min, 90 min) from the preparation of the samples. Data obtained were compared to control (PBS with 1 % DMSO) and the ratio sample/control was determined for each compound. Compounds are considered soluble if the ratio is≤3.

in vitro = conditions: PAMPA, pH 7.4
Description: Membrane permeability was estimated by the well‐validated parallel artificial membrane permeability assay (PAMPA) technique.[17, 26]
Parallel Artificial Membrane Permeability Assay (PAMPA). Donor solution (0.2 mM) was prepared by diluting 20 mM dimethyl sulfoxide (DMSO) compound stock solution using phosphate buffer (pH 7.4, 0.01 M). Filters were coated with 5 μL of a 1 % (w/v) dodecane solution of L‐α‐phosphatidylcholine. Donor solution (150 μL) was added to each well of the filter plate. To each well of the acceptor plate, 300 μL of solution (5 % DMSO in phosphate buffer) was added. […] The sandwich was incubated for 24 h at room temperature under gentle shaking. After the incubation time, the sandwich plates were separated and 250 μL of the acceptor plate was transferred to a UV quartz microtiter plate and measured by UV spectroscopy, using a Multiskan GO microplate spectrophotometer (Thermo Fisher Scientific) at 250–500 nm at a step of 5 nm. Reference solutions (250 μL) were prepared diluting the sample stock solutions to the same concentration as that with no membrane barrier.
In this equation, VR is the volume of the acceptor compartment (0.3 cm^3), VD is the donor volume (0.15 cm^3), A is the accessible filter area (0.24 cm^2), and t is the incubation time in seconds.

[2] = CYPs and UGTs dual-activity microsomal stability; format: in vitro ADME; conditions: human liver microsomes; alamethicin, NADPH and UDPGA cofactors; 37 °C, 60 min
Description: In this study, the CYPs and UGTs “dual‐activity” microsomal stability assay was carried out to follow the loss of the test compounds over time under CYP‐ and UGT‐mediated metabolic pathways. In detail, the compounds were added to human liver microsomes in the presence of alamethicin, NADPH and UDPGA as cofactors.[24] Alamethicin, a pore‐forming peptide, was used to activate UGTs in human liver microsomes. Testosterone was used as positive control while the negative control was prepared by incubation of the compounds without cofactors up to 60 min. The negative control is essential to detect problems such as non‐specific protein binding or heat instability.
Instrumentation and chromatographic conditions. The metabolic stability of investigated compounds was monitored using a Nexera UHPLC system (Shimadzu, Kyoto, Japan) consisting of a CBM‐20A controller, two LC‐30AD pumps, an SPD‐M20A photo diode array detector, a CTO‐20AC column oven and, a SIL‐30AC autosampler. The chromatographic analyses were accomplished on a Kinetex® Evo C18 column, 150×2.1 mm×2.6 μm (Phenomenex®, Bologna, Italy) maintained at 40 °C. The optimal mobile phase consisted of 0.1 % HCOOH/H2O v/v (A) and 0.1 % HCOOH/ACN v/v (B) delivered at constant flow rate of 0.5 mL/min ^−1. Analysis was performed in gradient elution as follows: 0–8.00 min, 5–95 % B; 8.00–10.00 min, isocratic to 95 % B; then five minutes for column re‐equilibration. Data acquisition was set in the range 190–800 nm and chromatograms were monitored at 254 nm.
In vitro drug metabolism using human liver microsomes. 25 μL of 5 mg/mL human […] microsomes (Thermo Fisher Scientific, Bremen, Germany) were pre‐incubated with 0.625 μL of 100 μg/mL alamethicin. Then 2.5 μL of sample (5 mM) with 168 μL of 100 mM phosphate buffer (pH 7.4), 4 μL of 500 mM MgCl2 were added, the mixture was incubated at 37 °C for 5 min. Optimal UGT activity can be achieved by the addition of MgCl2 and alamethicin as pore forming antibiotic. These components allow for the efficient transfer of a glucuronide product and the cofactor uridine 5′‐diphospho‐α‐D‐glucuronic acid (UDPGA) within the microsomal matrix. The reaction has started by adding 50 μL of mix NADPH 20 mM and UDP‐GlcUA 20 mM as cofactors (1 : 1 v/v) and carried out 37 °C for 60 min in a Thermomixer comfort (Eppendorf, Hamburg, Germany). The reaction was stopped by the addition of 200 μL ice‐cold acetonitrile and then samples were centrifuged at 14,000 rpm at 25 °C for 5 min (Eppendorf® microcentrifuge 5424, Hamburg, Germany). The supernatants were collected and injected in UHPLC. The control at 0 min was obtained by addition of ice‐cold acetonitrile immediately after incubation with microsomes. […]

[3] = system: BD1 and BD2 of BET proteins (BRD2, BRD3, BRD4 and BRDT); experiment: Protein stability shift assay (ΔTm), BET bromodomains; format: binding; conditions: compound 10 μM; protein 2 μM
Description: (§1) The compounds were tested at 10 μM fixed dose and the pan‐BET inhibitor 1 was used as a reference compound.[22] The results obtained from this screening supported our design strategy.
(§2) Protein stability shift assay. Thermal melting experiments were carried out using an Mx3005p Real Time PCR machine (Stratagene). Proteins were buffered in 10 mM HEPES pH 7.5, 500 mM NaCl and assayed in a 96‐well plate at a final concentration of 2 μM in 20 μL volume. Compounds were added at a final concentration of 10 μM. SYPRO Orange (Molecular Probes) was added as a fluorescence probe at a dilution of 1 : 1000. Excitation and emission filters for the SYPRO‐Orange dye were set to 465 nm and 590 nm, respectively. The temperature was raised with a step of 3 °C per minute from 25 °C to 96 °C and fluorescence readings were taken at each interval. The temperature dependence of the fluorescence during the protein denaturation process was approximated by the equation yT=yF+yU-yF/1+e^ΔuGT/RT
(§3) where ΔuG(T) is the difference in unfolding free energy between the folded and unfolded state, R is the gas constant and yF and yU are the fluorescence intensity of the probe in the presence of completely folded and unfolded protein, respectively. The baselines of the denatured and native states were approximated by a linear fit. The observed temperature shifts, ΔTm obs, were recorded as the difference between the transition midpoints of sample and reference wells containing protein without ligand in the same plate and determined by non‐linear least squares fit.

[4] = system: non‐BET bromodomain‐containing proteins (CREBBP, PB1 and PCAF); experiment: Protein stability shift assay (ΔTm), non-BET bromodomains; format: binding; conditions: compound 10 μM; protein 2 μM
Description: as §1, §2, §3

BD1 of BRD4 = system: BD1 of BRD4; parameters: method as in earlier work; conditions: ref 19b; cited from earlier work
BD1 (BRD3 and BRD4) = conditions: cited from earlier work

| Compound | ΔTm screening against BET bromodomains [3] | also measured |
| --- | --- | --- |
| Cc1cc(/N=N/c2ccc(S(=O)(=O)Nc3ccccn3)cc2)c(N)cc1O [7 a, MS436, reference compound] | – | Solubility at 100 μM ([1]; 100 μM, aqueous solution with 1 % DMSO): still soluble; solubility [1]: 100 µM (≈ 38.3 µg/mL); Papp at 24 h, 0.2 mM (in vitro): 0.0103 ×10⁻⁶ cm/s; CYPs and UGTs “dual‐activity” microsomal stability (percentage of the parent compound turnover) [2]: 7.8±0.5% |
| Cc1cc(-c2nc3ccc(S(=O)(=O)Nc4ccc(C#N)cc4)cc3[nH]2)cc(C)c1O [9 b, N ‐(4‐cyanophenyl)‐2‐(4‐hydroxy‐3,5‐dimethylphenyl)‐1H‐benzo[d]imidazole‐6‐sulfonamide] | increase in the melting temperature of all BET proteins | solubility [1]: 50 µM (≈ 20.9 µg/mL); Papp at 24 h, 0.2 mM (in vitro): 0.0909 ×10⁻⁶ cm/s; CYPs and UGTs “dual‐activity” microsomal stability (percentage of the parent compound turnover) [2]: 16.3±0.5% |
| Cc1cc(-c2nc3ccc(S(N)(=O)=O)cc3[nH]2)cc(C)c1O [9 c, 2‐(4‐hydroxy‐3,5‐dimethylphenyl)‐1H‐benzo[d]imidazole‐6‐sulfonamide] | definitely lower affinity than 9 a and 9 b | – |
| CNS(=O)(=O)c1ccc2nc(-c3cc(C)c(O)c(C)c3)[nH]c2c1 [9 d, 2‐(4‐hydroxy‐3,5‐dimethylphenyl)‐N‐methyl‐1H‐benzo[d]imidazole‐6‐sulfonamide] | definitely lower affinity than 9 a and 9 b | – |
| Cc1cc(-c2nc3ccc(S(=O)(=O)NCc4ccccn4)cc3[nH]2)cc(C)c1O [9 e, 2‐(4‐hydroxy‐3,5‐dimethylphenyl)‐N‐(pyridin‐2‐ylmethyl)‐1H‐benzo[d]imidazole‐6‐sulfonamide] | complete loss of activity | – |
| Cc1cc(-c2nc3ccc(S(=O)(=O)NCc4cccnc4)cc3[nH]2)cc(C)c1O [9 f, 2‐(4‐hydroxy‐3,5‐dimethylphenyl)‐N‐(pyridin‐3‐ylmethyl)‐1H‐benzo[d]imidazole‐6‐sulfonamide] | complete loss of activity | – |
| Cc1cc(-c2nc3ccc(S(=O)(=O)NC4CC4)cc3[nH]2)cc(C)c1O [9 g, N ‐cyclopropyl‐2‐(4‐hydroxy‐3,5‐dimethylphenyl)‐1H‐benzo[d]imidazole‐6‐sulfonamide] | partial loss of affinity toward BETs | ΔTm screening, off-target binding (BD2 of BRDT and non-BET bromodomains) [4]: strong off‐target binding |
| Cc1cc(-c2nc3ccc(S(=O)(=O)NC4CCCC4)cc3[nH]2)cc(C)c1O [9 h, N ‐cyclopentyl‐2‐(4‐hydroxy‐3,5‐dimethylphenyl)‐1H‐benzo[d]imidazole‐6‐sulfonamide] | affinity toward BETs similar to 9 a and 9 b | ΔTm screening, off-target binding (BD2 of BRDT and non-BET bromodomains) [4]: strong binding to BD2 of BRDT and other non‐BET bromodomain‐containing proteins |
| Cc1cc(-c2nc3ccc(S(=O)(=O)NC4CCCCC4)cc3[nH]2)cc(C)c1O [9 i, N ‐cyclohexyl‐2‐(4‐hydroxy‐3,5‐dimethylphenyl)‐1H‐benzo[d]imidazole‐6‐sulfonamide] | affinity toward BETs similar to 9 a and 9 b | ΔTm screening, off-target binding (BD2 of BRDT and non-BET bromodomains) [4]: strong binding to BD2 of BRDT and other non‐BET bromodomain‐containing proteins |
| Cc1cc(-c2nc3ccc(S(=O)(=O)Nc4ccccn4)cc3[nH]2)ccc1O [9 j, 2‐(4‐hydroxy‐3‐methylphenyl)‐N‐(pyridin‐2‐yl)‐1H‐benzo[d]imidazole‐6‐sulfonamide] | marked loss of activity | – |
| Cc1cc(O)cc(C)c1-c1nc2ccc(S(=O)(=O)Nc3ccccn3)cc2[nH]1 [9 k, 2‐(4‐hydroxy‐2,6‐dimethylphenyl)‐N‐(pyridin‐2‐yl)‐1H‐benzo[d]imidazole‐6‐sulfonamide] | marked loss of activity | – |
| O=S(=O)(Nc1ccccn1)c1ccc2nc(-c3ccc(O)cc3)[nH]c2c1 [9 l, 2‐(4‐hydroxyphenyl)‐N‐(pyridin‐2‐yl)‐1H‐benzo[d]imidazole‐6‐sulfonamide] | still active but significantly less selective | – |
| O=S(=O)(Nc1ccccn1)c1ccc2nc(-c3cccc(O)c3)[nH]c2c1 [9 m, 2‐(3‐hydroxyphenyl)‐N‐(pyridin‐2‐yl)‐1H‐benzo[d]imidazole‐6‐sulfonamide] | almost completely inactive | – |
| O=S(=O)(Nc1ccccn1)c1ccc2nc(-c3ccc(Cl)cc3)[nH]c2c1 [9 n, 2‐(4‐chlorophenyl)‐N‐(pyridin‐2‐yl)‐1H‐benzo[d]imidazole‐6‐sulfonamide] | almost completely inactive | – |
| O=S(=O)(Nc1ccccn1)c1ccc2nc(-c3ccc(O)c(O)c3)[nH]c2c1 [9 o, 2‐(3,4‐dihydroxyphenyl)‐N‐(pyridin‐2‐yl)‐1H‐benzo[d]imidazole‐6‐sulfonamide] | not tolerated | – |
| O=S(=O)(Nc1ccccn1)c1ccc2nc(-c3ccc(O)cc3O)[nH]c2c1 [9 p, 2‐(2,4‐dihydroxyphenyl)‐N‐(pyridin‐2‐yl)‐1H‐benzo[d]imidazole‐6‐sulfonamide] | active but non‐selective | – |
| COCC(COC)n1c(-c2cc(C)c(=O)n(C)c2)nc2cc(N3CCOCC3)ccc21 [Compound 8, I‐BET469] | – | Selectivity for BD1 over BD2 of BRD2, BRD3 and BRD4 (BD1 of BRD4): 20 fold; pIC50 on BD1 of BRD4 (BD1 of BRD4): 7.9 |
| COc1ccccc1S(=O)(=O)Nc1ccc2c3c(cc(-n4cnc(C)c4)nc13)C(=O)N2C [LT052] | – | IC50 (BD1 (BRD3 and BRD4); read-out: IC50 towards BD1): 0.0877 µM; Selectivity for BD1 over BD2 (BD1 (BRD3 and BRD4); tested against BRD3 and BRD4): over 100 fold |
| CC(C)NCC(O)COc1cccc2ccccc12 (stereo not drawn) [propranolol] | – | Papp at 24 h, 0.2 mM (in vitro): 1.91 ×10⁻⁶ cm/s |
